# Results published in PMC10895676, “Antiviral Activity of Lipophilic Nucleoside Tetraphosphate Compounds” (Journal of Medicinal Chemistry, 2024).
# “Also recorded” adds a separate entry of the source.
# Target: T1, human DNA polymerase γ (Homo sapiens, UniProt P54098)
# T1 construct: purchased Chimerx
# T1 sequence (P54098 1-1239): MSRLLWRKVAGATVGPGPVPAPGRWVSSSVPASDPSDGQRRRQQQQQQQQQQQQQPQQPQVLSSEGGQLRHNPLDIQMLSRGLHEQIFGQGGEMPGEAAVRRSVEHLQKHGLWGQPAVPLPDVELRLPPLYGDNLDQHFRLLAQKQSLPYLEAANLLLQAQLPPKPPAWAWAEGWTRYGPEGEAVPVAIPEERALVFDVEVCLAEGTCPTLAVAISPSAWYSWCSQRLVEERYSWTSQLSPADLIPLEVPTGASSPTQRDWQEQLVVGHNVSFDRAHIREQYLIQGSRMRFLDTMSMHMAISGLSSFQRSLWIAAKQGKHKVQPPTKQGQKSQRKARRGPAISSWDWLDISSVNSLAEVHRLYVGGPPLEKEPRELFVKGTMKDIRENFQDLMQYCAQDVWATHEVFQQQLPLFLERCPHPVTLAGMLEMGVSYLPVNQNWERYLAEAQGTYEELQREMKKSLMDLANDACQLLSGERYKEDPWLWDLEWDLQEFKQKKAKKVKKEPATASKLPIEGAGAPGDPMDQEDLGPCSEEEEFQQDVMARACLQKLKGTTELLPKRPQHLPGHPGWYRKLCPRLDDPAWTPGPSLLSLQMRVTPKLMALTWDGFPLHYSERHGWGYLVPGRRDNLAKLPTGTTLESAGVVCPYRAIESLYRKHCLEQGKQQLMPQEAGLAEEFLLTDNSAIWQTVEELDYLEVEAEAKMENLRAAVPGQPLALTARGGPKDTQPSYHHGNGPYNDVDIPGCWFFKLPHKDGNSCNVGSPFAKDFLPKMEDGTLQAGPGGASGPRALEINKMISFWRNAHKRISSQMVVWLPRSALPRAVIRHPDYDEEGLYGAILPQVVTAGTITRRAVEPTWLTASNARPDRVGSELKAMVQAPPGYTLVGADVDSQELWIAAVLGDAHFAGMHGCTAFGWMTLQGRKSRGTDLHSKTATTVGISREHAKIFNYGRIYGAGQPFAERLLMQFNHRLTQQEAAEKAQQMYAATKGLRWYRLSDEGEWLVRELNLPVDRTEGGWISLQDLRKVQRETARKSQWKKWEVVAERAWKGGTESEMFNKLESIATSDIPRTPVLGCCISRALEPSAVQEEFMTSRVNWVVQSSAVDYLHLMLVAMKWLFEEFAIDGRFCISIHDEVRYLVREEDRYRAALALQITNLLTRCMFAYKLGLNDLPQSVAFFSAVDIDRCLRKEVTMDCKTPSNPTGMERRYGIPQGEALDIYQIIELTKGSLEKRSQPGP
# Test: Primer extension assay using human DNA polymerase γ
# Type: biochemical
# Details: 120 min, 2 U, 37 °C
# Text: Encouraged by the previously obtained results that γ-phosphate-modified-d4TDPs 3, γ-monoalkylated d4TTP derivatives as well as d4TDP were accepted as substrates by HIV-RT,[49],[50],[55],[59]−[61] δ-dialkylated d4T tetraphosphate analogues 4,5, δ-monoalkylated d4T tetraphosphate analogues 20 and 24 and d4T4P were investigated in primer extension assays in the presence of HIV-RT or the three different human DNA polymerases α, β and γ. D4TTP (for the compounds 4–9) and the natural thymidine triphosphate (TTP) were used as reference compounds.
# Figure 6 Primer extension assay using HIV-RT (A), human polymerases α (B), β (C), and γ (D). (Figure 6A). Primer extension assay using HIV-RT (30 min, 6U). Lane 1: (+) dATP, dCTP, dGTP, and TTP with HIV-RT. Lane 2: (−) dATP, dCTP, dGTP, and TTP without HIV-RT. Lane 3: TTP. […] Lane 5: δ-(C4; C18)-d4T4P 4d. […] Lane 7: δ-(C18)-d4T4P 20. Lane 8: δ-C-(C18)-d4T4P 24. Lane 9: d4T4P. Lane 10: d4TTP. Lane 11: d4TDP. HIV-RT assay reaction conditions: 50 mM Tris–HCl (pH 8.6), 10 mM MgCl2, 40 mM KCl, 250 μM dNTPs, HIV-RT (6 U), 0.20 μM DNA hybrid, primer-template-hybrid 0.32 mM in a reaction volume of 10 μL, incubated at 37 °C for 0.5 h, 80 °C for 7 min. Primer extension assays: 50 mA, 45 w for 4 h. (Figure 6B). For human DNA polymerase α assay (60 min, 2 U): Lane 1: (+) dATP, dCTP, dGTP, and TTP with human polymerase α. Lane 2: (−) dATP, dCTP, dGTP, and TTP without human polymerase α. Lane 3: TTP. […] Lane 5: δ-(C4; C18)-d4T4P 4d. […] Lane 7: δ-(C18)-d4T4P 20. Lane 8: δ-C-(C18)-d4T4P 24. Lane 9: d4T4P. Lane 10: d4TTP. Human DNA polymerase α assay conditions: 60 mM Tris–HCl (pH 8), 5 mM Mg(OAc)2, 100 mM KCl, 1.0 mM dithiothreitol, 0.1 mM spermine, 0.01% (w/v) bovine serum albumin, 250 μM dNTPs, 2 U human polymerase α, 0.20 μM DNA hybrid, and primer-template-hybrid 0.32 mM in a reaction volume of 10 μL, incubated at 37 °C for 1 h, 80 °C for 7 min. Primer extension assays: 50 mA, 45 w for 3 h. (Figure 6C). For human DNA polymerase β assay (60 min, 2 U): Lane 1: (+) dATP, dCTP, dGTP, and TTP with human polymerase β. […]
row,Compound,substrate for human DNA polymerase γ (primer extension)
1,"CCCCCCCCCCCCCCCCCCOP(=O)(O)OP(=O)(O)OP(=O)(O)OP(=O)(O)OC[C@@H]1C=C[C@H](n2cc(C)c(=O)[nH]c2=O)O1 [compound 20, δ-(Alkyl-C18)-d4T4P]",nonsubstrates
2,"CCCCCCCCCCCCCCCCCCP(=O)(O)OP(=O)(O)OP(=O)(O)OP(=O)(O)OC[C@@H]1C=C[C@H](n2cc(C)c(=O)[nH]c2=O)O1 [compound 24, δ-C-(Alkyl-C18)-d4T4P]",nonsubstrates
3,"Cc1cn([C@H]2C=C[C@@H](COP(=O)(O)OP(=O)(O)OP(=O)(O)OP(=O)(O)O)O2)c(=O)[nH]c1=O [d4T4P, 2′,3′-didehydro-2′,3′-dideoxythymidine-5′-tetraphosphate]",nonsubstrates; also recorded: not a substrate
